Data published in paper PMC8065850 (Microorganisms, 2021).
Entries after “also recorded” stand apart in the source; their conditions may differ.

How the values were obtained:
SARS-CoV-2 3CLpro = SARS-CoV-2 3CLpro (Severe acute respiratory syndrome coronavirus 2, UniProt P0DTD1); experiment: biochemical; format: biochemical
SARS-CoV 3CLpro = SARS-CoV 3CLpro (Severe acute respiratory syndrome coronavirus, UniProt P0C6X7); experiment: biochemical; format: biochemical
[1] = system: SARS-CoV-2 in infected Vero cells; conditions: cited from earlier work

SMILES	inhibitory effect in library screening against SARS-CoV-2 3CLpro (in words) (SARS-CoV-2 3CLpro)	inhibitory effect in library screening against SARS-CoV 3CLpro (in words) (SARS-CoV 3CLpro)	IC50 (SARS-CoV 3CLpro)	also measured
Cc1cccc(C)c1OCC(=O)N[C@@H](Cc1ccccc1)[C@@H](O)C[C@H](Cc1ccccc1)NC(=O)[C@H](C(C)C)N1CCCNC1=O [Lopinavir]	did not block the proteolytic activity			
Nc1nc(O)c2ncn(COC(CO)CO)c2n1 [No 1-3, Ganciclovir]	little	little		
CC(C)OC(=O)[C@H](C)N[P@](=O)(OC[C@H]1O[C@@H](n2ccc(=O)[nH]c2=O)[C@](C)(F)[C@@H]1O)Oc1ccccc1 [No 2-3, Sofosbuvir]	little	little		
C=C1[C@H](CO)[C@@H](O)C[C@@H]1n1cnc2c(=O)[nH]c(N)nc21 [No 4-3, Entecavir]	little	little		
Nc1ccn([C@@H]2CS[C@H](CO)O2)c(=O)n1 [No 4-4, Lamivudine]	little	little		
CCN(CC)CCCC(C)Nc1ccnc2cc(Cl)ccc12 (centres unmarked) [No 6-5, Chloroquine]	little	little		
CCN(CCO)CCCC(C)Nc1ccnc2cc(Cl)ccc12 (centres unmarked) [No 6-6, Hydroxychloroquine]	little	little		
Nc1nc(NC2CC2)c2ncn([C@H]3C=C[C@@H](CO)C3)c2n1 [abacavir, Abacavir]			24.7 µM	IC50 (SARS-CoV-2 3CLpro): 12.6 µM
Nc1ccn(C[C@@H](CO)OCP(=O)(O)O)c(=O)n1 [cidofovir, Cidofovir]			> 47 µM	IC50 (SARS-CoV-2 3CLpro): > 36 µM
CC(C)(C)NC(=O)[C@@H]1CN(Cc2cccnc2)CCN1C[C@@H](O)C[C@@H](Cc1ccccc1)C(=O)N[C@H]1c2ccccc2C[C@H]1O [indinavir, Indinavir]			31.5 µM	
CCC(CC)COC(=O)[C@H](C)N[P@](=O)(OC[C@H]1O[C@@](C#N)(c2ccc3c(N)ncnn23)[C@H](O)[C@@H]1O)Oc1ccccc1 [remdesivir, Remdesivir]	minor inhibitory activity			
CC(C)c1nc(CN(C)C(=O)N[C@H](C(=O)N[C@@H](Cc2ccccc2)C[C@H](O)[C@H](Cc2ccccc2)NC(=O)OCc2cncs2)C(C)C)cs1 [ritonavir, Ritonavir]	did not block the proteolytic activity; also recorded: did not show clear inhibitory activity			
CCCc1nn(C)c2c(=O)[nH]c(-c3cc(S(=O)(=O)N4CCN(C)CC4)ccc3OCC)nc12 [sildenafil, Sildenafil]			12.5 µM	IC50 (SARS-CoV-2 3CLpro): 8.25 µM
CN1CC(=O)N2[C@H](c3ccc4c(c3)OCO4)c3[nH]c4ccccc4c3C[C@@H]2C1=O [tadalafil, Tadalafil]	did not display meaningful inhibitory activity	did not display meaningful inhibitory activity		
C[C@H](Cn1cnc2c(N)ncnc21)OCP(=O)(O)O [tenofovir, Tenofovir]			14.2 µM	killing of SARS-CoV-2 in infected Vero cells [1]: kill SARS-CoV-2
